In ChEMBL document CHEMBL2424518, “Phosphodiesterase inhibitors. Part 6: design, synthesis, and structure-activity relationships of PDE4-inhibitory pyrazolo[1,5-a]pyridines with anti-inflammatory activity” (Bioorg Med Chem Lett, 2013):
Active and inactive are the calls of the source. The rule behind the calls is not given here.

Legend:
[1] = biological target: 3',5'-cyclic-AMP phosphodiesterase 4B (Homo sapiens, UniProt Q07343); test: Inhibition of core catalytic domains PDE4B (unknown origin)
[2] = biological target: T1, cGMP-inhibited 3',5'-cyclic phosphodiesterase 3A (Homo sapiens, UniProt Q14432); test: Inhibition of core catalytic domains PDE3A (unknown origin)
T1 sequence (Q14432 whole entry, the tested form may be a part): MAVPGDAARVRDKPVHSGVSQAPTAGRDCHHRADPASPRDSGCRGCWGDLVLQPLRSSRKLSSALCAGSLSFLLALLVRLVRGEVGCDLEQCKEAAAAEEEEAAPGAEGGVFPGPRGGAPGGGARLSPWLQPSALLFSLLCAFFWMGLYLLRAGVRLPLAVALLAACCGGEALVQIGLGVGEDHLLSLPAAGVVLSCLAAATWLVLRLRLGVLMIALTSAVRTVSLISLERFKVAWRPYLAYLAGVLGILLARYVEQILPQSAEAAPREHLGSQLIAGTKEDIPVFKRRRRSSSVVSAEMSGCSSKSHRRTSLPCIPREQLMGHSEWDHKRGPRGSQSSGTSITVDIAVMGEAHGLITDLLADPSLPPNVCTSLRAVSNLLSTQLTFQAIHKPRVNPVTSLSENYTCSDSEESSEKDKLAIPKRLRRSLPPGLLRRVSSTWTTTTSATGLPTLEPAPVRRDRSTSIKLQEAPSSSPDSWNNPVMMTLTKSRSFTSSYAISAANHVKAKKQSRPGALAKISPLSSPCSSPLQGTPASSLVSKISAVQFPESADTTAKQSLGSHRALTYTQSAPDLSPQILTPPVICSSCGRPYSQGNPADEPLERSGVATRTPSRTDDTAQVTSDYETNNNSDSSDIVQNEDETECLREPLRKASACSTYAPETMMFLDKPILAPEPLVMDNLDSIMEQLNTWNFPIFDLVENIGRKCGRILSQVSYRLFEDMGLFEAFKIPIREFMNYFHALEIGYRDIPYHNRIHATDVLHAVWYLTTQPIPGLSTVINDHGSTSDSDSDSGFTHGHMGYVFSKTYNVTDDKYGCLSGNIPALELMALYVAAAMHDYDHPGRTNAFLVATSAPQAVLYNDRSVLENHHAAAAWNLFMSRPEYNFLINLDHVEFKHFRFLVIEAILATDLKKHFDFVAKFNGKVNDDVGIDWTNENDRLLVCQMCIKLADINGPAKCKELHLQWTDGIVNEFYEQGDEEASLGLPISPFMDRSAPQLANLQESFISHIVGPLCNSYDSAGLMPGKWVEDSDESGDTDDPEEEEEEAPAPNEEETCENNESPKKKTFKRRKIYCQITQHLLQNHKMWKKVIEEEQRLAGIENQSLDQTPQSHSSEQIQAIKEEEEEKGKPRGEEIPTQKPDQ

[3] = biological target: T1, cGMP-inhibited 3',5'-cyclic phosphodiesterase 3A; test: Inhibition of core catalytic domains PDE3A (unknown origin) at 100 uM
Rattus norvegicus [4] = test: Antiinflammatory activity in LPS-stimulated rat assessed as total number of leukocytes in bronchoalveolar lavage fluid at 3 mg/kg, po administered 1 hr before LPS challenge measured after 3 hrs; format: functional, Lung
Rattus norvegicus [5] = test: Antiinflammatory activity in LPS-stimulated rat assessed as total number of leukocytes in bronchoalveolar lavage fluid at 1 mg/kg, po administered 1 hr before LPS challenge measured after 3 hrs; format: functional, Lung
Rattus norvegicus [6] = test: Antiinflammatory activity in LPS-stimulated rat assessed as total number of leukocytes in bronchoalveolar lavage fluid at 10 mg/kg, po administered 1 hr before LPS challenge measured after 3 hrs; format: functional, Lung

Sequence of 3',5'-cyclic-AMP phosphodiesterase 4B (Q07343 whole entry, the tested form may be a part): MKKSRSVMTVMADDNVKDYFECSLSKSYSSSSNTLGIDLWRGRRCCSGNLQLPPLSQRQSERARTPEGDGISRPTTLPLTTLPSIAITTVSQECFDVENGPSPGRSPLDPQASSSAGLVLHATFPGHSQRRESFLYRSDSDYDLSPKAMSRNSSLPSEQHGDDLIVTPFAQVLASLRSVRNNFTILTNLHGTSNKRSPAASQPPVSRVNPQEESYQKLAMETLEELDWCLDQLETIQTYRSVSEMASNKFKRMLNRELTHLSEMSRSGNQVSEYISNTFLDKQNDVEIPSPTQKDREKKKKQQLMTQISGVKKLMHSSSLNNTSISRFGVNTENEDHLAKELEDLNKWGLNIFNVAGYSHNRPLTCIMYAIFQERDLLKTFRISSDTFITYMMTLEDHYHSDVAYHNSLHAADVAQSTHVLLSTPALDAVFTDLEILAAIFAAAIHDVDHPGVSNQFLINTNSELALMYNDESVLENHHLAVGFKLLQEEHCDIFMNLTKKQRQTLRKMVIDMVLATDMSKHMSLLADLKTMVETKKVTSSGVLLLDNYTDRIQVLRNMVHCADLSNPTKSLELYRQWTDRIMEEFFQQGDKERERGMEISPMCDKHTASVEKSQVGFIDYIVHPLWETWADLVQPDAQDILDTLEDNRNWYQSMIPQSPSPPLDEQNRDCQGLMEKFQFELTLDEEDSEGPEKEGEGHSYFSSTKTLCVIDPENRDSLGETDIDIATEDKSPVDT

Row | Structure (SMILES) | IC50 [1] | IC50 [2] | inhibition [3] | Activity (Rattus norvegicus [4]) | Activity (Rattus norvegicus [5]) | Activity (Rattus norvegicus [6])
1 | COc1ccc(CNc2c(Cl)cncc2Cl)c2cc(C(F)(F)F)nn12 | 150 nM | 71400 nM | – | – | – | –
2 | COc1ccc(C(O)Cc2ccncc2)c2cc(C(F)(F)F)nn12 (centres undefined) | 750 nM | – | inactive | – | – | –
3 | COc1ccc(C(=O)Nc2c(Cl)c[n+]([O-])cc2Cl)c2cc(C(F)(F)F)nn12 | 1.5 nM | – | inactive | 77% | – | –
4 | O=C(Nc1c(Cl)cncc1Cl)c1ccc(CO)n2nc(C(F)(F)F)cc12 | 31 nM | – | inactive | 26% | – | –
5 | COc1ccc(C(=O)Nc2c(Cl)cncc2Cl)c2cc(C(C)O)nn12 (centres undefined) | 83 nM | – | inactive | 60% | – | –
6 | COc1ccc(C(=O)Nc2c(Cl)cncc2Cl)c2cc(/C=N/O)nn12 | 5.1 nM | > 100000 nM | – | 41% | – | –
7 | COc1cccc2c(C(=O)Nc3c(Cl)c[n+]([O-])cc3Cl)c(C(F)(F)F)nn12 | 16600 nM | – | inactive | – | – | –
8 | COc1ccc(C(=O)Nc2c(Cl)cncc2Cl)c2cc(C(F)(F)F)nn12 | 0.27 nM | – | inactive | – | 60% | –
9 | O=C(Nc1c(Cl)cncc1Cl)c1ccc(OC(F)F)c(OCC2CC2)c1 [ROFLUMILAST] | – | > 100000 nM | – | – | – | 59%
10 | CNc1ccc(C(=O)Nc2c(Cl)cncc2Cl)c2cc(C(F)(F)F)nn12 | 0.19 nM | – | inactive | 33% | – | –
11 | COc1ccc(C(O)Cc2c(Cl)cncc2Cl)c2cc(C(F)(F)F)nn12 (centres undefined) | 39 nM | – | inactive | – | – | –
12 | COc1ccc(NC(=O)c2c(Cl)cncc2Cl)c2cc(C(F)(F)F)nn12 | 240 nM | – | inactive | – | – | –
13 | COCc1cc2c(C(=O)Nc3c(Cl)cncc3Cl)ccc(OC)n2n1 | 13 nM | – | inactive | – | 54% | –
14 | COc1ccc(C(=O)Nc2c(Cl)c[n+]([O-])cc2Cl)c2cc(C#N)nn12 | 22 nM | – | inactive | 61% | – | –
15 | COc1ccc(C(=O)c2ccncc2)c2cc(C(F)(F)F)nn12 | 980 nM | – | inactive | – | – | –
16 | CCc1cc2c(C(=O)Nc3c(Cl)c[n+]([O-])cc3Cl)ccc(OC)n2n1 | 9.4 nM | – | inactive | 40% | – | –
17 | COc1ccc(/C=C/c2ccncc2)c2cc(C(F)(F)F)nn12 | 15 nM | 67100 nM | – | 57% | – | –
18 | CC(=O)c1ccc(C(=O)Nc2c(Cl)cncc2Cl)c2cc(C(F)(F)F)nn12 | 21 nM | – | inactive | 43% | – | –
19 | COc1ccc(C(=O)Nc2c(Cl)c[n+]([O-])cc2Cl)c2ccnn12 | 2.7 nM | – | inactive | 57% | – | –
20 | COc1ccc(C(=O)Cc2ccncc2)c2cc(C(F)(F)F)nn12 | 9.4 nM | – | inactive | – | – | –
21 | COc1ccc(C(=O)Nc2c(Cl)cncc2Cl)c2ccnn12 | 39 nM | > 100000 nM | – | 0% | – | –
22 | COc1ccc(C(=O)Nc2c(Cl)cncc2Cl)c2cc(C(F)F)nn12 | 0.2 nM | – | inactive | 32% | – | –

Row | Structure (SMILES) | IC50 [1] | IC50 [2] | inhibition [3] | Activity (Rattus norvegicus [4]) | Activity (Rattus norvegicus [5]) | Activity (Rattus norvegicus [6])
23 | COc1ccc(C(=O)Nc2c(Cl)cncc2Cl)c2cc(C=O)nn12 | 9.8 nM | – | inactive | 64% | – | –
24 | COc1ccc(/C=C/c2c(Cl)cncc2Cl)c2cc(C(F)(F)F)nn12 | 5.5 nM | – | inactive | 39% | – | –
25 | COc1cccc2c(C(=O)Nc3c(Cl)cncc3Cl)c(C(F)(F)F)nn12 | 6130 nM | – | inactive | – | – | –
26 | COc1ccc(C2=NNC(=O)CC2C)c2cc(C(F)(F)F)nn12 (single isomer, unassigned; (-)) | – | – | – | – | 79% | –
27 | COCc1cc2c(C(=O)Nc3c(Cl)c[n+]([O-])cc3Cl)ccc(OC)n2n1 | 50 nM | – | inactive | 18% | – | –
28 | COc1ccc(C(=O)Nc2c(Cl)cncc2Cl)c2cc(C(C)C)nn12 | 110 nM | – | inactive | 64% | – | –
29 | COc1ccc(C(=O)Nc2c(Cl)cncc2Cl)c2cc(C3CC3)nn12 | 0.51 nM | > 100000 nM | – | 71% | – | –
30 | COc1ccc(C(=O)Nc2c(Cl)cncc2Cl)c2cc(C#N)nn12 | 4.1 nM | > 100000 nM | – | 66% | – | –
31 | COc1ccc(CCc2ccncc2)c2cc(C(F)(F)F)nn12 | 4.9 nM | – | inactive | 55% | – | –
32 | COc1ccc(C(=O)C(=O)c2ccncc2)c2cc(C(F)(F)F)nn12 | 1260 nM | – | inactive | – | – | –
33 | COc1ccc(C(O)c2ccncc2)c2cc(C(F)(F)F)nn12 (centres undefined) | 10200 nM | – | inactive | – | – | –
34 | COc1ccc(C(=O)Nc2c(Cl)c[n+]([O-])cc2Cl)c2cc(C(C)C)nn12 | 10 nM | – | inactive | – | – | 63%
35 | COc1ccc(C(=O)Nc2c(Cl)c[n+]([O-])cc2Cl)c2cc(C3CC3)nn12 | 2.8 nM | – | inactive | – | 62% | –
36 | CC(O)c1ccc(C(=O)Nc2c(Cl)cncc2Cl)c2cc(C(F)(F)F)nn12 (centres undefined) | 8 nM | > 100000 nM | – | 59% | – | –
37 | COc1ccc(Cc2ccncc2)c2cc(C(F)(F)F)nn12 | 570 nM | > 100000 nM | – | – | – | –
38 | CCc1cc2c(C(=O)Nc3c(Cl)cncc3Cl)ccc(OC)n2n1 | 7 nM | > 100000 nM | – | 53% | – | –
39 | COCc1ccc(C(=O)Nc2c(Cl)cncc2Cl)c2cc(C(F)(F)F)nn12 | 4.5 nM | – | inactive | 31% | – | –
40 | COc1ccc(C(=O)Nc2c(Cl)cncc2Cl)c2cc(C(C)=O)nn12 | 2.9 nM | > 100000 nM | – | 41% | – | –
41 | COc1ccc(C(=O)Cc2c(Cl)cncc2Cl)c2cc(C(F)(F)F)nn12 | 2.9 nM | – | inactive | – | – | 87%
42 | CSc1ccc(C(=O)Nc2c(Cl)cncc2Cl)c2cc(C(F)(F)F)nn12 | 0.11 nM | > 100000 nM | – | 52% | – | –
43 | COc1ccc(C(=O)Nc2c(Cl)cncc2Cl)c2cc(C(=O)O)nn12 | 550 nM | – | inactive | – | – | –
